Experimental data as given in patent US20240082221A1, “COMPOSITIONS AND METHODS FOR THE IDENTIFICATION OF COMPOUNDS THAT PROTECT AGAINST LIPOFUSCIN CYTOTOXICITY” (priority 2021, published 2024).

Tested on: LLO-induced atypical necroptosis
Test: LLO-induced atypical necroptosis, protection assay
Format: cell-based

Structure (SMILES)	protection against LLO-induced atypical necroptosis
N=C1S/C(=C\c2cn[nH]c2-c2ccc(F)cc2)C(=O)N1c1nccs1 [Nec7, Necrostatin 7]	preventable
[O-][n+]1cccc(/C(Cl)=N/OC[C@H](O)CN2CCCCC2)c1 [arimoclomol]	preventable
